Results as given in the NIST ThermoML archive (doi:10.1016/j.tca.2018.10.003).
± gives the expanded uncertainty stated by the source.

Details: Crystal; DSC

Triple point temperature: 377.75 ± 4.1 K
SMILES: O=C(OOC(=O)c1ccccc1)c1ccccc1 [benzoyl peroxide]
